From patent US20250026916A1, “ULTRAVIOLET ABSORBER AND USE THEREOF” (RIANLON (ZHONGWEI) NEW MATERIAL CO., LTD., priority 2023, published 2025)

Legend:
[1] = Absorption spectrum in chloroform (UV-visible spectrophotometer); format: physicochemical; details: chloroform solution 10 mg/L; for Peak area ratio in waveband 280-450 nm: total
Protocol: The absorption spectra were measured using an ultraviolet-visible spectrophotometer, and the instrument model is (UV-2600, Shimadzu corporation, Japan). The absorption spectra were compared in Table 1 below.

[2] = Color test, Gardner color scale of DMF solution; format: physicochemical; details: 2 g dissolved in 18 g DMF
Protocol: The completely dissolved solution was transferred to a cuvette, and the Gardner color scale value transmitted by the solvent was measured. The instrument was a Ci7600 bench spectrophotometer (X-rite, the United States).

[3] = Solubility/compatibility test in typical oligomer resins; details: mass soluble in 100 g of oligomer, 20° C.
Protocol: Test method: The mass of soluble ultraviolet absorber in 100 g of oligomer when the ambient temperature is 20° C.

[4] = general description of the commercial product; cited from earlier work

Row | Compound | Absorption cut-off wavelength [1] [nm] | Maximum absorption peak in red shift direction [1] [nm] | Peak area ratio in waveband 280-360 nm [1] [%] | Peak area ratio in waveband 361-380 nm [1] [%] | Peak area ratio in waveband 381-400 nm [1] [%] | Peak area ratio in waveband 401-450 nm [1] [%] | Peak area ratio in waveband 280-450 nm [1] [%] | Gardner color scale [2] | Solubility in cyclohexanedimethylene diisocyanate (H6XDI) [3] [g] | Solubility in hexamethylene diisocyanate (HDI) trimer [3] [g] | Solubility in tripropylene glycol diacrylate [3] [g] | Wavelength to which absorption can be red-shifted [4] [nm]
1 | Cc1cc(-n2nc3ccc(Cl)cc3n2)c(O)c(C(C)(C)C)c1 [UV-326, 2′-(2′-hydroxy-3′-tert-butyl-5′-methylphenyl)-5-chlorobenzotriazole, reference compound] | 410 |  |  |  |  |  |  |  |  |  |  | 
2 | CCCCCCCCCCCCSc1ccc2nn(-c3cc(C)cc(C(C)(C)C)c3O)nc2c1 [RSUV-1] | 416 | 369 | 58.1 | 26.5 | 13.6 | 1.8 | 100.0 | 3.0 | 4.2 | 4.6 | 3.9 | 
3 | CCCCCCCCCCCCS(=O)(=O)c1ccc2nn(-c3cc(C)cc(C(C)(C)C)c3O)nc2c1 [RSUV-2] | 430 | 370 | 65.4 | 18.1 | 11.8 | 4.7 | 100.0 | 5.2 | 3 | 3.5 | 3.8 | 
4 | CCCCN1C(=O)c2cc3nn(-c4cc(C(C)(C)CC(C)(C)C)cc(C(C)(C)c5ccccc5)c4O)nc3cc2C1=O [Carboprotect, reference compound] | 435 | 374 | 56.2 | 14.6 | 18.5 | 10.7 | 100 | 11.5 |  |  |  | 420
